Measurements reported in PubChem BioAssay AID179 (DTP/NCI, 2004).
Active and inactive are the calls of the source.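 The calls were made as follows: active = compounds giving half or more protection of infected cells from virus-caused growth loss, again on retest; inactive = the rest.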 Where a SMILES comes first, the peptide text is derived from it. [ ]: non-standard residue; d: D form. The star is where a group is joined. Arg(NO2) = N=C(NCCC[CH](N)C(=O)O)N[N+](=O)[O-]; Cbz = O=C(OCc1ccccc1)*; Boc = CC(C)(C)OC(=O)*; tBu = CC(C)(C)*

System: CEM cells HIV-1 protection, formazan growth assay
Assay: NCI AIDS Antiviral Assay
Details: for IC50: measured here: growth of uninfected CEM cells
Outline: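 Human CEM cells, uninfected and HIV-1-infected, exposed to five drug concentrations; growth measured by soluble formazan assay and scored as percent protection from infection, with protecting compounds retested.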

Structure (SMILES) | EC50 | IC50 | outcome
Cc1ncc(COP(=O)(O)O)c(/C=C2\SC(=S)NC2=O)c1O | > 200 µM | > 200 µM | –
CC1CCCC(C)N1Cc1cccnc1 (stereo not given) | – | – | inactive
CC(=O)N(C)OC(=O)CC(=O)c1ccccc1 | > 776 µM | 661 µM | –
COc1ccc(C(=O)CCC2(C)OCCO2)cc1OC | > 646 µM | 479 µM | –
O=C1C2=C(Nc3cc([N+](=O)[O-])ccc3N2)OC1c1ccccc1 (stereo not given) | > 17 µM | > 17 µM | –
O=C1CSc2cc([N+](=O)[O-])ccc2N1 | > 123 µM | > 123 µM | –
S=C(S)N1CCN(c2ccccc2)CC1 | > 200 µM | > 200 µM | –
O=C1C(O)=C(c2ccc(Br)cc2)C(=O)C(O)=C1c1ccc(Br)cc1 | > 58.9 µM | 22.4 µM | –
COC(=O)c1csnn1 | > 1740 µM | > 1740 µM | –
Cn1c(=O)n2n(c1=O)C(C)(C13CC4CC(CC(C4)C1)C3)C13CC4CC(CC1C4)CC23 (stereo not given) | > 100 µM | > 100 µM | –
CC1OC(OC2C(CO)OC(O[C@H]3CC[C@@]4(C)C(=CC[C@H]5[C@@H]6C[C@@H]7O[C@@]8(CC[C@H](C)CN8)[C@@H](C)[C@@H]7[C@@]6(C)CC[C@@H]54)C3)C(OC3OC(C)C(O)C(O)C3O)C2O)C(O)C(O)C1O (stereo not given in full) | – | – | inactive
Nc1nc(Cl)cc(NCC2CC(O)(CO)C2)n1 (stereo not given) | > 200 µM | > 200 µM | –
CC(=O)/C(C)=C(/C)[O-].CC(=O)/C(C)=C(/C)[O-].NCCNCCCNC(=O)c1cccc2cc3ccccc3nc12.[Co+3].[O-][Cl+3]([O-])([O-])[O-] | > 100 µM | 3.47 µM | –
COC(=O)CSc1[nH]c2nc(C)nc(Nc3ccccc3)c2c1C#N | > 200 µM | > 200 µM | –
CCCNC(=O)Sc1ccccc1C(=O)NCCC(N)=O | > 2.63 µM | – | –
O=C(CO)CC(=O)C(=O)Nc1ccccc1 | > 151 µM | > 151 µM | –
CCOC(=O)c1c(C)cc(C)nc1[S][Sn]([Br])([Br])[S]c1nc(C)cc(C)c1C(=O)OCC | 40.7 µM | 51.3 µM | –
CN1C(=N\S(=O)(=O)c2ccc(Cl)cc2)/C(=N/N=P(c2ccccc2)(c2ccccc2)c2ccccc2)c2ccccc21 | > 2.34 µM | > 2.34 µM | –
CCCCS(=O)(=O)O | > 200 µM | > 200 µM | –
C/C(=N\NC(=S)Nc1ccccc1)[C@H]1C2CCC(C2)C1C/C=C\CCCC(=O)O (stereo not given in full) | > 229 µM | 107 µM | –
COC(OC)c1cc2c(cc1C=O)OCO2 | – | – | inactive

Structure (SMILES) | EC50 | IC50 | outcome
CCC(=O)NC(Nc1ccccc1F)(C(F)(F)F)C(F)(F)F | > 200 µM | > 200 µM | –
CN1CC[C@@H](O)[C@@H](CNC23CC4CC(CC(C4)C2)C3)C1 | – | – | inactive
CCOC(=O)N1N=C(/C(C)=N/OC)C(C)S1=O (stereo not given) | > 200 µM | 148 µM | –
CC(OC(C)(C)C)C(NC(=O)C(N)CCCCNC(=O)OC(C)(C)C)C(=O)NC(Cc1ccccc1)C(=O)O (stereo not given) (H-Lys(Boc)-Thr(tBu)-Phe-OH; configuration not given here) | > 200 µM | > 200 µM | –
COc1ccccc1NC(=O)C1=C(C)NC(C)=C(C(=O)Nc2ccccc2OC)C1/C=C/c1ccccc1 | – | – | inactive
C#CCCCCC#Cc1ccccc1C(=O)C=[N+]=[N-] | > 110 µM | 91.2 µM | –
CC(=O)N(C(C)=O)c1cnc2c(nc3cc(C)ccn32)c1C | > 200 µM | 52.5 µM | –
NC1CC(=O)c2c(Cl)sc(Cl)c21 (stereo not given) | > 200 µM | 3.47 µM | –
Cc1ccc(S(=O)(=O)SS(=O)(=O)c2ccc(C)cc2)cc1 | 13.8 µM | 52.5 µM | –
Cc1ccc(C)c(COCCOCn2c(=O)[nH]c(=O)c3cc(Br)ccc32)c1 | > 200 µM | > 200 µM | –
NNC(=S)NCCNC(=S)NN | > 200 µM | > 200 µM | –
O=C(Nn1c(-c2ccccc2)nc2ccccc2c1=O)c1ccc(O)cc1 | > 200 µM | > 200 µM | –
O=[N+]([O-])C(=C(Cl)Cl)/C(Cl)=C(\Cl)Br | – | – | inactive
O=C(Nc1cc2c(cc1OCc1ccccc1)N(S(=O)(=O)c1ccccc1)[C@@H]1c3ccccc3OC[C@H]21)c1ccccc1 | > 200 µM | > 200 µM | –
O=C(Nc1nc2ccc([N+](=O)[O-])cc2s1)C(=O)C(C1OC(=O)c2ccccc21)[N+](=O)[O-] (stereo not given) | > 81.3 µM | 51.3 µM | –
CC(C)(C)C1=NC(=P(c2ccccc2)(c2ccccc2)c2ccccc2)C(=O)O1 | > 100 µM | > 100 µM | –
Cc1cccc2c1CC1(Cc3ccccc3C1=O)C2=O (stereo not given) | > 200 µM | > 200 µM | –
CCOC(=O)C(CC(C(=O)OCC)C(=O)OCC)C(=O)OCC | – | – | inactive
NC(Cc1ccc(S(=O)(=O)O)cc1)C(=O)NC(CCCCNC(=O)NCCCCC(NC(=O)C(N)Cc1ccc(S(=O)(=O)O)cc1)C(=O)NC(Cc1ccc(S(=O)(=O)O)cc1)C(=O)O)C(=O)NC(Cc1ccc(S(=O)(=O)O)cc1)C(=O)O (stereo not given) | > 100 µM | > 100 µM | –
CON(C)c1nc2ccccc2o1 | > 200 µM | 107 µM | –
C#CC(O)/C=C/C(O)CCCC(O)CC#CC(O)C#CCCCCC(O)/C=C/CCCC(O)/C=C/CCCCCCCCCCCCCC(O)C(O)C#CC(=O)O (stereo not given) | > 50.1 µM | 28.8 µM | –

Structure (SMILES) | EC50 | IC50 | outcome
OCC(CO)CC1COc2ccccc2O1 (stereo not given) | – | – | inactive
CC(C)CCC1(O)O[C@H]2C[C@H]3[C@@H]4CCC5CC(=O)C=C[C@]5(C)[C@H]4CC[C@]3(C)[C@H]2[C@@H]1C (stereo not given in full) | > 151 µM | 21.4 µM | –
O=c1n(CCCN2CCOCC2)nc2n1-c1ccc3ccccc3c1SC2 | > 200 µM | 33.9 µM | –
c1csc(-c2nc3sc(-c4cccs4)nc3s2)c1 | – | – | inactive
CN(C)Cc1cc(/C=C/C(=O)c2ccc(Cl)c(Cl)c2)cc(CN(C)C)c1O | > 151 µM | 6.31 µM | –
CCOC(=O)CCC(NC(=O)c1ccc(CNc2nc3ccccc3nc2C(=O)OCC)cc1)C(=O)OCC (stereo not given) | > 200 µM | > 200 µM | –
CC1=NNC(=O)C1C(CC(=O)c1c[nH]c2ccccc12)C(=O)O (stereo not given) | > 200 µM | 126 µM | –
CCOC(=O)C1=C(Nc2ccc(Cl)c(Cl)c2)OC/C1=N\NS(=O)(=O)c1ccc(C)cc1 | > 74.1 µM | 64.6 µM | –
O=C(Nc1ccccc1SC(/C=C/NNC1=NC(c2ccccc2)C(c2ccccc2)=NN1)c1ccccc1)c1ccc(Cl)cc1Cl (stereo not given) | > 10.7 µM | > 10.7 µM | –
CCCCC(=O)Oc1c(Cl)cc(C(=CCC[C@H]2CC[C@@]3(C)[C@@H](CC[C@@H]4[C@@H]3CC[C@]3(C)[C@@H](C(C)CCCC(C)C)CC[C@@H]43)C2)c2cc(Cl)c(OC(=O)CCCC)c(C(=O)O)c2)cc1C(=O)O (stereo not given in full) | 74.1 µM | > 100 µM | –
NC(Cn1ccc(=O)c(O)c1)C(=O)O (stereo not given) | > 200 µM | 95.5 µM | –
CCOC(=O)C(=[N+]=[N-])C(=O)C1(C(=O)OCC)CCN(C(=O)c2ccccc2)C1=O (stereo not given) | > 200 µM | > 200 µM | –
O=C1C2(CCCC13OC3c1ccccc1)OC2c1ccccc1 (stereo not given) | > 200 µM | 115 µM | –
CCCCCC12OCC(C)(C)N1O2 (stereo not given) | > 200 µM | 126 µM | –
O=S1(=O)OCCOS(=O)(=O)C1C1c2ccccc2-c2ccccc21 | > 200 µM | 30.9 µM | –
C/C(=N/O)c1ccc2c(c1)C(=NO)c1cc(/C(C)=N/O)ccc1-2 | > 83.2 µM | 11.5 µM | –
OCC(O)C1OC2CC1Nc1ccccc1N2 (stereo not given) | > 200 µM | 97.7 µM | –
CCOC12OC3=C(CC1CC1=C(CCC1=O)O2)C(=O)CC3 (stereo not given) | – | – | inactive
CCCCNC(=O)n1ncc2cc([N+](=O)[O-])c([N+](=O)[O-])cc21 | > 200 µM | 25.7 µM | –
O=C(Nc1nc2ccc([N+](=O)[O-])cc2s1)C(=O)C(C(=O)c1ccncc1)C1OC(=O)c2ccccc21 (stereo not given) | > 186 µM | 102 µM | –
O=C(Cc1nc2ccccc2s1)C(=O)Nc1cccc(C(F)(F)F)c1 | – | – | inactive

Structure (SMILES) | EC50 | IC50 | outcome
CCOC(=O)C1(C/C=C(/C)Cl)CCCC1=O (stereo not given) | > 204 µM | > 204 µM | –
COC1=C(C)C(=O)c2ncccc2C1=O | – | – | inactive
Cc1ccc(-n2cc(-c3ccc(Cl)cc3)c3c2N=CN2NC(c4cccs4)=NC32)cc1 (stereo not given) | > 100 µM | 42.7 µM | –
CC(=Nc1ccc(N(C)C)cc1)c1ccccc1 | > 200 µM | 28.8 µM | –
CC(C)(C)COC1C2(OCCO2)C2CCC1(C)C2(C)C (stereo not given) | > 200 µM | > 200 µM | –
Nc1ncnc2c1ncn2C1OC(COP(=O)(O)O)C(O)C1O (stereo not given) | > 200 µM | > 200 µM | –
C/C=C(\C)C(=O)N1c2ccccc2CC1c1c(C)[nH]c2ccccc12 (stereo not given) | > 21.9 µM | 6.92 µM | –
O=C1Sc2ccccc2C(=O)N2C1CSC2c1ccccc1 (stereo not given) | > 200 µM | > 200 µM | –
CCCCN(CCCC)C(=O)/C(CC(=O)c1cccc2ccccc12)=N\NC(=O)c1cc2ccccc2cc1O | > 34.7 µM | 16.2 µM | –
O=C1OCCN1CCO | > 200 µM | > 200 µM | –
O=C1C[C@@H]2[C@@H](c3ccccc3)[C@@H]3C(=O)c4ccccc4NC(=O)[C@H]3[C@]2(O)c2ccccc2N1 | 26.9 µM | 30.9 µM | –
Cc1cc2c(c(C=Nc3ccccc3O)c1)OC1(C=C2)Oc2ccccc2C(=O)N1C (stereo not given) | > 200 µM | 25.1 µM | –
O=C(c1ccccc1)c1nc2ccc(Cl)cc2c2c1CCCO2 | > 16.2 µM | > 16.2 µM | –
N#C/C(N)=C(\C#N)N=CNc1ccccc1N | > 200 µM | > 200 µM | –
CN(C)Nc1cc(=O)[nH]c(=O)[nH]1 | > 200 µM | > 200 µM | –
CC(=O)Oc1cc2c(n(C)c1=O)CCC2 | > 200 µM | 155 µM | –
CC(=O)O[C@@H]1CC[C@]2(C)C3CC[C@]4(C)C(C(C)CCc5nc6ccccc6[nH]5)CCC4C3CC[C@@H]2C1 (stereo not given in full) | > 50.1 µM | 15.5 µM | –
N#C/C(N)=C(\C#N)NC=NCc1ccccc1 | > 200 µM | > 200 µM | –
CSc1nc(Nc2cccc(C(F)(F)F)c2)c2c(N)nn(C)c2n1 | > 200 µM | > 200 µM | –
CC1=NN(C(=O)CC(=O)Nc2cccc(C)c2)C(=O)C1N=Nc1ccc(S(=O)(=O)CCOS(=O)(=O)O)cc1 (stereo not given) | > 2 µM | 1.26 µM | –
COC(=O)C(CCCN=C(N)N[N+](=O)[O-])NC(=O)C(Cc1ccccc1)NC(=O)C1CCCN1C(=O)OCc1ccccc1 (stereo not drawn) (Cbz-Pro-Phe-[Arg(NO2)]-OMe; configuration not given here) | > 112 µM | > 112 µM | –
